Experimental data taken from the supplement of paper PMC4862054.
Several values for one entry are separate records, joined by “and”; a condition that tells them apart may be missing. Equal entries are not always repeated.

How the values were obtained:
Settings in all cases: incubation time: 72 h
[1] = tested on: Hs578T; assay: drug sensitivity score (DSS), CellTox Green (DSS (AUC-based score)); higher = stronger drug effect (viability inhibition or cytotoxicity); extreme values may be limits of the assay
How it was run: (§1)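 The drug sensitivity score reflects the area under a fitted dose-response curve. To obtain it, breast cancer cells in 20 µl suspension were seeded into 384-well plates containing compound at 5 concentrations, 10-fold apart over a compound-specific 10,000-fold range, and incubated 72 h. CellTox Green fluorescence (485/520 nm) was read first and CellTiter-Glo luminescence second, after 10 min at room temperature. Each plate was normalised to 0.1 % DMSO and a positive kill control.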

[2] = tested on: CAL-120; assay: as above
How it was run: as §1

[3] = tested on: HCC1599; assay: as above
How it was run: as §1

[4] = tested on: DU-4475; assay: as above
How it was run: as §1

[5] = tested on: CAL-51; assay: as above
How it was run: as §1

[6] = tested on: MDA-MB-468; assay: as above
How it was run: as §1

[7] = tested on: HDQ-P1; assay: as above
How it was run: as §1

[8] = tested on: HCC1937; assay: as above
How it was run: as §1

[9] = tested on: HCC1143; assay: as above
How it was run: as §1

[10] = tested on: CAL-148; assay: as above
How it was run: as §1

[11] = tested on: MDA-MB-436; assay: as above
How it was run: as §1

[12] = tested on: MCF-10A; assay: as above
How it was run: as §1

[13] = tested on: BT-474; assay: as above
How it was run: as §1

[14] = tested on: MDA-MB-453; assay: as above
How it was run: as §1

[15] = tested on: BT-549; assay: drug sensitivity score (DSS), CellTiter-Blue viability (DSS (AUC-based score)); higher = stronger viability inhibition; extreme values may be limits of the assay
How it was run: (§2)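 For each plate, readings were scaled between 0.1 % DMSO and a positive kill control. The cells, breast cancer lines seeded at 20 µl per well into 384-well plates containing a 5- or 9-point compound series, had been incubated for 72 h. Fluorescence at 560/590 nm was taken after 2 h at 37 °C with 2.5 µl CellTiter-Blue per well. Area under the fitted dose-response curve served as the drug sensitivity score.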

[16] = tested on: Hs578T; assay: as above
How it was run: as §2

[17] = tested on: CAL-85-1; assay: as above
How it was run: as §2

[18] = tested on: DU-4475; assay: as above
How it was run: as §2

[19] = tested on: CAL-51; assay: as above
How it was run: as §2

[20] = tested on: MDA-MB-468; assay: as above
How it was run: as §2

[21] = tested on: MDA-MB-231; assay: as above
How it was run: as §2

[22] = tested on: HDQ-P1; assay: as above
How it was run: as §2

[23] = tested on: HCC1937; assay: as above
How it was run: as §2

[24] = tested on: CAL-148; assay: as above
How it was run: as §2

[25] = tested on: MFM-223; assay: as above
How it was run: as §2

[26] = tested on: BT-474; assay: as above
How it was run: as §2

CN(Cc1cnc2nc(N)nc(N)c2n1)c1ccc(C(=O)N[C@@H](CCC(=O)O)C(=O)O)cc1 [Methotrexate]
drug sensitivity score [1]: 7.51 | drug sensitivity score [2]: 0 | drug sensitivity score [3]: 0 | drug sensitivity score [4]: 0 | drug sensitivity score [5]: 0 | drug sensitivity score [6]: 0 | drug sensitivity score [7]: 0 | drug sensitivity score [8]: 0 | drug sensitivity score [9]: 1.72 | drug sensitivity score [10]: 0 | drug sensitivity score [11]: 2.33 | drug sensitivity score [12]: 0 | drug sensitivity score [13]: 0 | drug sensitivity score [14]: 0.671 | drug sensitivity score [15]: 0 | drug sensitivity score [16]: 4.17 | drug sensitivity score [17]: 9.69 | drug sensitivity score [18]: 0 | drug sensitivity score [19]: 15.1 | drug sensitivity score [20]: 18.6 | drug sensitivity score [21]: 0 | drug sensitivity score [22]: 0 | drug sensitivity score [23]: 0 | drug sensitivity score [24]: 9.98 | drug sensitivity score [25]: 0 | drug sensitivity score [26]: 0

Cc1cc(Nc2nc(N[C@@H](C)c3ncc(F)cn3)ncc2Cl)[nH]n1 [AZD1480]
drug sensitivity score [1]: 1.75 | drug sensitivity score [2]: 0 | drug sensitivity score [3]: 0 | drug sensitivity score [4]: 0 | drug sensitivity score [5]: 0 | drug sensitivity score [6]: 0 | drug sensitivity score [7]: 0 | drug sensitivity score [8]: 0 | drug sensitivity score [9]: 0 | drug sensitivity score [10]: 0 | drug sensitivity score [11]: 0 | drug sensitivity score [12]: 0 | drug sensitivity score [13]: 0 | drug sensitivity score [14]: 0 | drug sensitivity score [15]: 0 | drug sensitivity score [16]: 0 | drug sensitivity score [17]: 0 | drug sensitivity score [18]: 0.841 | drug sensitivity score [19]: 0 | drug sensitivity score [20]: 0 | drug sensitivity score [21]: 0 | drug sensitivity score [22]: 0 | drug sensitivity score [23]: 0 | drug sensitivity score [24]: 0 | drug sensitivity score [25]: 7.5 | drug sensitivity score [26]: 0

CCN(CC)CCCC(C)Nc1ccnc2cc(Cl)ccc12 (stereo unspecified) [Chloroquine]
drug sensitivity score [1]: 8.48 | drug sensitivity score [2]: 4.62 | drug sensitivity score [3]: 2.54 | drug sensitivity score [4]: 1.64 | drug sensitivity score [5]: 3.75 | drug sensitivity score [6]: 27.3 | drug sensitivity score [7]: 5.48 | drug sensitivity score [8]: 5.9 | drug sensitivity score [9]: 0 | drug sensitivity score [10]: 11.8 | drug sensitivity score [11]: 8.96 | drug sensitivity score [12]: 7.9 | drug sensitivity score [13]: 14.7 | drug sensitivity score [14]: 9.85 | drug sensitivity score [15]: 0 | drug sensitivity score [16]: 0 | drug sensitivity score [17]: 0 | drug sensitivity score [18]: 0 | drug sensitivity score [19]: 0 | drug sensitivity score [20]: 0 | drug sensitivity score [21]: 0 | drug sensitivity score [22]: 0 | drug sensitivity score [23]: 0 | drug sensitivity score [24]: 0 | drug sensitivity score [25]: 0 | drug sensitivity score [26]: 0

Cc1cn(-c2cc(NC(=O)c3ccc(C)c(Nc4nccc(-c5cccnc5)n4)c3)cc(C(F)(F)F)c2)cn1 [Nilotinib]
drug sensitivity score [1]: 0.546 | drug sensitivity score [2]: 0 | drug sensitivity score [3]: 0 | drug sensitivity score [4]: 0 | drug sensitivity score [5]: 0 | drug sensitivity score [6]: 0 | drug sensitivity score [7]: 0 | drug sensitivity score [8]: 0 | drug sensitivity score [9]: 0 | drug sensitivity score [10]: 0 | drug sensitivity score [11]: 0 | drug sensitivity score [12]: 0 | drug sensitivity score [13]: 0 | drug sensitivity score [14]: 0 | drug sensitivity score [15]: 6.16 and 6.02 | drug sensitivity score [16]: 0 | drug sensitivity score [17]: 0 | drug sensitivity score [18]: 0 | drug sensitivity score [19]: 0 | drug sensitivity score [20]: 0 | drug sensitivity score [21]: 4.55 and 5.18 | drug sensitivity score [22]: 0 | drug sensitivity score [23]: 6.24 and 6.45 | drug sensitivity score [24]: 0 | drug sensitivity score [25]: 0 | drug sensitivity score [26]: 0

CC(=O)[C@]1(O)Cc2c(O)c3c(c(O)c2[C@@H](O[C@H]2C[C@H](N)[C@H](O)[C@H](C)O2)C1)C(=O)c1ccccc1C3=O [Idarubicin]
drug sensitivity score [1]: 0 | drug sensitivity score [2]: 0 | drug sensitivity score [3]: 0 | drug sensitivity score [4]: 0.488 | drug sensitivity score [5]: 9.49 | drug sensitivity score [6]: 10.5 | drug sensitivity score [7]: 0 | drug sensitivity score [8]: 0 | drug sensitivity score [9]: 0 | drug sensitivity score [10]: 12.7 | drug sensitivity score [11]: 0 | drug sensitivity score [12]: 1.59 | drug sensitivity score [13]: 4.95 | drug sensitivity score [14]: 0 | drug sensitivity score [15]: 11.5 | drug sensitivity score [16]: 11.4 | drug sensitivity score [17]: 6.93 | drug sensitivity score [18]: 18.3 | drug sensitivity score [19]: 21 | drug sensitivity score [20]: 14.2 | drug sensitivity score [21]: 11.9 | drug sensitivity score [22]: 6.33 | drug sensitivity score [23]: 21.4 | drug sensitivity score [24]: 19.7 | drug sensitivity score [25]: 6 | drug sensitivity score [26]: 10.2

CO[C@@]12[C@H](COC(N)=O)C3=C(C(=O)C(C)=C(N)C3=O)N1C[C@@H]1N[C@@H]12 [Mitomycin C]
drug sensitivity score [1]: 0.971 | drug sensitivity score [2]: 0 | drug sensitivity score [3]: 0 | drug sensitivity score [4]: 0 | drug sensitivity score [5]: 17.2 | drug sensitivity score [6]: 27.4 | drug sensitivity score [7]: 0.392 | drug sensitivity score [8]: 0 | drug sensitivity score [9]: 1.5 | drug sensitivity score [10]: 1.72 | drug sensitivity score [11]: 0 | drug sensitivity score [12]: 0 | drug sensitivity score [13]: 0 | drug sensitivity score [14]: 0 | drug sensitivity score [15]: 4.28 | drug sensitivity score [16]: 4.97 | drug sensitivity score [17]: 4.52 | drug sensitivity score [18]: 3.3 | drug sensitivity score [19]: 2.74 | drug sensitivity score [20]: 7.16 | drug sensitivity score [21]: 5.97 | drug sensitivity score [22]: 2.19 | drug sensitivity score [23]: 14.1 | drug sensitivity score [24]: 5.96 | drug sensitivity score [25]: 4.69 | drug sensitivity score [26]: 3.1
